This note sets out measurements from US8048862B2, “Macrocyclic inhibitors of hepatitis C virus replication” (priority 2008, dated 2011).

Read-outs that look alike come from different tables or passages of the source.

In one assay the target is NS3/NS4 complexes (Hepatitis C virus genotype 1a, UniProt P27958). In words: NS3/NS4 inhibition activity (IC50). It counts as biochemical. The source says: NS3-NS4 inhibition activity can be determined using known assay methods. For example, NS3/NS4 complexes may be formed and inhibitory concentrations of test compounds determined as described in U.S. Patent Application Publication Number 2007/0054842 paragraph numbers 1497-1509, which is incorporated herein by reference in its entirety. Similarly, hepatitis C replicon EC50 may be determined using known assay methods such as described in U.S. Patent Application Publication Number 2007/0054842 paragraph numbers 1510-1515. Assays may be conducted at ambient temperature (23° C.) in assay buffer containing 50 mM Tris-HCl, pH 7.5, 15% glycerol, 0.6 mM Lauryldimethylamine Oxide (LDAO), 25 μM NS4A peptide, and 10 mM Dithiothreitol (DTT).

In the next assay the test system is hepatitis C replicon. In words: hepatitis C replicon EC50. Format: cell-based. As to conditions: Hepatitis C virus; Table 2; hepatitis C replicon; read-out: EC50. The source says: NS3-NS4 inhibition activity can be determined using known assay methods.

Sequence of NS3/NS4 complexes (P27958 1027-1657): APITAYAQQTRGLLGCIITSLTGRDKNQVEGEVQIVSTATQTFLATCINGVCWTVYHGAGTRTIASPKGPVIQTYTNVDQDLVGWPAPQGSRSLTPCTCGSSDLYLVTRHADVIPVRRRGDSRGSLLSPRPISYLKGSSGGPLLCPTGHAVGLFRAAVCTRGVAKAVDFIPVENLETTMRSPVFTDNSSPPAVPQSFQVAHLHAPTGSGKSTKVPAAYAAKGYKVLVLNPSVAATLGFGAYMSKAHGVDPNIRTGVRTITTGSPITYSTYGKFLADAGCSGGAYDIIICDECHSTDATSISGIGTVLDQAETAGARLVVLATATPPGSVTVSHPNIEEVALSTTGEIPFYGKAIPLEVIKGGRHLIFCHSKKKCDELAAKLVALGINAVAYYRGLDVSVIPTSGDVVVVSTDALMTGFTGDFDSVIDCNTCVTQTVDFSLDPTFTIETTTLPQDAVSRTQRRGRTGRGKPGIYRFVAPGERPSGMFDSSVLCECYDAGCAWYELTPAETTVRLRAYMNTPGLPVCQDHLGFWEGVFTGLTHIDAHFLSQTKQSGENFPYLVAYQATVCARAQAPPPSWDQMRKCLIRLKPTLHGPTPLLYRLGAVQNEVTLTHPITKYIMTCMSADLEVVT
Sequence of NS3/NS4 complexes (P27958 1658-1711): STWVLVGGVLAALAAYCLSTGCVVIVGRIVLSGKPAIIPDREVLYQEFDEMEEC

With `O=C1N[C@]2(C(=O)O)C[C@H]2/C=C\CCCCC[C@H](Nc2cccc(F)c2)C(=O)N2C[C@H](Oc3nc4ccccc4s3)C[C@@H]12` [Compound 123], the IC50 on NS3/NS4 complexes (Table 2, read-out: IC50) was in the range of 75 to 500 nM.
The same measure, in the same setting: as for `COc1cccc(N[C@H]2CCCCC/C=C\[C@@H]3C[C@@]3(C(=O)O)NC(=O)[C@@H]3C[C@@H](Oc4nc5ccccc5s4)CN3C2=O)c1` [Compound 132], the figure is 75 to 500 nM; as for `O=C1N[C@]2(C(=O)O)C[C@H]2/C=C\CCCCC[C@H](Nc2cc(F)cc(C(F)(F)F)c2)C(=O)N2C[C@H](Oc3nc4ccccc4s3)C[C@@H]12` [Compound 321], 10 to 75 nM; as for `O=C1N[C@]2(C(=O)O)C[C@H]2/C=C\CCCCC[C@H](Nc2cc(F)cc(C(F)(F)F)c2)C(=O)N2C[C@H](Oc3nc4ccc(Cl)cc4s3)C[C@@H]12` [Compound 322], 10 to 75 nM.
On to `Cc1ccc2nc(O[C@@H]3C[C@H]4C(=O)N[C@]5(C(=O)O)C[C@H]5/C=C\CCCCC[C@H](Nc5cc(F)cc(C(F)(F)F)c5)C(=O)N4C3)sc2c1` [Compound 323], for which the 50% inhibitory concentration (IC50) at NS3/NS4 complexes (Table 2, read-out: IC50) was less than 10 nM.
For the molecule `O=C1N[C@]2(C(=O)O)C[C@H]2/C=C\CCCCC[C@H](Nc2cc(F)cc(F)c2)C(=O)N2C[C@H](Oc3nc4ccccc4s3)C[C@@H]12` [Compound 324], the 50% inhibitory concentration (IC50) on NS3/NS4 complexes (Table 2, read-out: IC50) lay in the range of 10 to 75 nM.
On the same count and under the same terms, as for `O=C1N[C@]2(C(=O)O)C[C@H]2/C=C\CCCCC[C@H](Nc2ccc3ccccc3c2)C(=O)N2C[C@H](Oc3nc4ccccc4s3)C[C@@H]12` [Compound 327], the figure is 10 to 75 nM.
Regarding `O=C1N[C@]2(C(=O)O)C[C@H]2/C=C\CCCCC[C@H](Nc2ccc(C(F)(F)F)cc2)C(=O)N2C[C@H](Oc3nc4ccccc4s3)C[C@@H]12` [Compound 329], at NS3/NS4 complexes (Table 2, read-out: IC50), the IC50 lay in the range of 75 to 500 nM.
Consider `O=C1N[C@]2(C(=O)O)C[C@H]2/C=C\CCCCC[C@H](Nc2ccc(F)c(F)c2)C(=O)N2C[C@H](Oc3nc4ccccc4s3)C[C@@H]12` [Compound 343], for which the IC50 at NS3/NS4 complexes (Table 2, read-out: IC50) is 75 to 500 nM.
On the same count and under the same terms, as for `O=C1N[C@]2(C(=O)O)C[C@H]2/C=C\CCCCC[C@H](Nc2cc(Cl)cc(Cl)c2)C(=O)N2C[C@H](Oc3nc4ccccc4s3)C[C@@H]12` [Compound 344], the figure is 75 to 500 nM; as for `COc1ccc2c(O[C@@H]3C[C@H]4C(=O)N[C@]5(C(=O)NS(=O)(=O)C6(C)CC6)C[C@H]5/C=C\CCCCC[C@H](Nc5cc(F)cc(C(F)(F)F)c5)C(=O)N4C3)cc(-c3ccccc3)nc2c1` [Compound 357], 10 to 75 nM.
Regarding `COc1ccc2c(O[C@@H]3C[C@H]4C(=O)N[C@]5(C(=O)O)C[C@H]5/C=C\CCCCC[C@H](Nc5cccc(F)c5)C(=O)N4C3)cc(-c3nc(C(C)C)cs3)nc2c1C` [Compound 448], the IC50 on NS3/NS4 complexes (Table 2, read-out: IC50) was less than 10 nM.
Regarding `COc1ccc2c(O[C@@H]3C[C@H]4C(=O)N[C@]5(C(=O)NS(=O)(=O)C6(C)CC6)C[C@H]5/C=C\CCCCC[C@H](Nc5cccc(C(N)=O)c5)C(=O)N4C3)cc(-c3nc(C(C)C)cs3)nc2c1C` [Compound 483], the concentration giving a half-maximal response (EC50) in the assay with hepatitis C replicon was less than 10 nM.
As to `CC(C)(C)OC(=O)N[C@H]1CCCCC/C=C\[C@@H]2C[C@@]2(C(=O)NOc2ccccc2)NC(=O)[C@@H]2C[C@@H](Oc3nc4ccccc4s3)CN2C1=O` [Compound 1020], the IC50 on NS3/NS4 complexes (Table 3, read-out: IC50) was 10 to 100 nM.
Still for that read-out and setting: in the case of `CC(C)(C)OC(=O)N[C@H]1CCCCC/C=C\[C@@H]2C[C@@]2(C(=O)NOc2ccccc2)NC(=O)[C@@H]2C[C@@H](Oc3nc4ccc(F)cc4s3)CN2C1=O` [Compound 1021] it was 10 to 100 nM; in that of `CC(C)(C)OC(=O)N[C@H]1CCCCC/C=C\[C@@H]2C[C@@]2(C(=O)NOc2ccccc2)NC(=O)[C@@H]2C[C@@H](Oc3nc4ccc(Br)cc4s3)CN2C1=O` [Compound 1022], greater than 100 nM.
The same measure, in the same setting: as for `CC(C)(C)OC(=O)N[C@H]1CCCCC/C=C\[C@@H]2C[C@@]2(C(=O)NOc2ccccc2)NC(=O)[C@@H]2C[C@@H](Oc3nc4ccc(Cl)cc4s3)CN2C1=O` [Compound 1023], the figure is greater than 100 nM.
Consider `Cc1ccc2nc(O[C@@H]3C[C@H]4C(=O)N[C@]5(C(=O)NOc6ccccc6)C[C@H]5/C=C\CCCCC[C@H](NC(=O)OC(C)(C)C)C(=O)N4C3)sc2c1` [Compound 1024], for which the IC50 at NS3/NS4 complexes (Table 3, read-out: IC50) was greater than 100 nM.
Still for that read-out and setting: in the case of `COc1ccc2nc(O[C@@H]3C[C@H]4C(=O)N[C@]5(C(=O)NOc6ccccc6)C[C@H]5/C=C\CCCCC[C@H](NC(=O)OC(C)(C)C)C(=O)N4C3)sc2c1` [Compound 1025] it was greater than 100 nM; in that of `CC(C)(C)OC(=O)N[C@H]1CCCCC/C=C\[C@@H]2C[C@@]2(C(=O)O)NC(=O)[C@@H]2C[C@@H](Oc3nc4ccc(Cl)cc4o3)CN2C1=O` [Compound 1041], greater than 100 nM; in that of `CC(C)(C)OC(=O)N[C@H]1CCCCC/C=C\[C@@H]2C[C@@]2(C(=O)O)NC(=O)[C@@H]2C[C@@H](Oc3nc4cccc(F)c4o3)CN2C1=O` [Compound 1042], 10 to 100 nM.
Turning to `CC(C)(C)OC(=O)N[C@H]1CCCCC/C=C\[C@@H]2C[C@@]2(C(=O)O)NC(=O)[C@@H]2C[C@@H](Oc3nc4cc(F)ccc4o3)CN2C1=O` [Compound 1043], on NS3/NS4 complexes (Table 3, read-out: IC50), the concentration for half-maximal inhibition (IC50) lay within 10 to 100 nM.
Same read-out and setting: in the case of `Cc1ccc2oc(O[C@@H]3C[C@H]4C(=O)N[C@]5(C(=O)O)C[C@H]5/C=C\CCCCC[C@H](NC(=O)OC(C)(C)C)C(=O)N4C3)nc2c1` [Compound 1044] it was greater than 100 nM.
As for `CC(C)(C)OC(=O)N[C@H]1CCCCC/C=C\[C@@H]2C[C@@]2(C(=O)N2CCC[C@H]2C(=O)NCc2ccccc2)NC(=O)[C@@H]2C[C@@H](OC(=O)N3Cc4cccc(F)c4C3)CN2C1=O` [Compound 1054], the half-inhibitory concentration (IC50) against NS3/NS4 complexes (IC50, Table 3) is greater than 100 nM.
On the same count and under the same terms, as for `CC(C)(C)OC(=O)N[C@H]1CCCCC/C=C\[C@@H]2C[C@@]2(C(=O)NCC(=O)NCc2ccccc2)NC(=O)[C@@H]2C[C@@H](O)CN2C1=O` [Compound 1055], the figure is greater than 100 nM; as for `CC(C)(C)OC(=O)N[C@H]1CCCCC/C=C\[C@@H]2C[C@@]2(C(=O)N2CCC[C@H]2C(=O)NCc2ccccc2)NC(=O)[C@@H]2C[C@@H](O)CN2C1=O` [Compound 1056], greater than 100 nM.
For the molecule `CC(=O)O[C@@H]1C[C@H]2C(=O)N[C@]3(C(=O)NCCC(=O)NCc4ccccc4)C[C@H]3/C=C\CCCCC[C@H](NC(=O)OC(C)(C)C)C(=O)N2C1` [Compound 1059], the IC50 at NS3/NS4 complexes (Table 3, read-out: IC50) was greater than 100 nM.
In turn, `CC(=O)O[C@@H]1C[C@H]2C(=O)N[C@]3(C(=O)NCC(=O)NCc4ccccc4)C[C@H]3/C=C\CCCCC[C@H](NC(=O)OC(C)(C)C)C(=O)N2C1` [Compound 1060] gave an IC50 at NS3/NS4 complexes (IC50, Table 3) greater than 100 nM.
Still for that read-out and setting: as for `CO[C@@H]1C[C@H]2C(=O)N[C@]3(C(=O)NCC(=O)NCc4ccccc4)C[C@H]3/C=C\CCCCC[C@H](NC(=O)OC(C)(C)C)C(=O)N2C1` [Compound 1063], the figure is greater than 100 nM; as for `CO[C@@H]1C[C@H]2C(=O)N[C@]3(C(=O)N4CCC[C@H]4C(=O)NCc4ccccc4)C[C@H]3/C=C\CCCCC[C@H](NC(=O)OC(C)(C)C)C(=O)N2C1` [Compound 1064], greater than 100 nM; as for `CN(C)C(=O)O[C@@H]1C[C@H]2C(=O)N[C@]3(C(=O)NCC(=O)NCc4ccccc4)C[C@H]3/C=C\CCCCC[C@H](NC(=O)OC(C)(C)C)C(=O)N2C1` [Compound 1066], greater than 100 nM.
For the molecule `CN(C)C(=O)O[C@@H]1C[C@H]2C(=O)N[C@]3(C(=O)NCCC(=O)NCc4ccccc4)C[C@H]3/C=C\CCCCC[C@H](NC(=O)OC(C)(C)C)C(=O)N2C1` [Compound 1067], at NS3/NS4 complexes (Table 3, read-out: IC50), the IC50 was greater than 100 nM.
At NS3/NS4 complexes (IC50, Table 3), `CN(C)C(=O)O[C@@H]1C[C@H]2C(=O)N[C@]3(C(=O)N4CCC[C@H]4C(=O)NCc4ccccc4)C[C@H]3/C=C\CCCCC[C@H](NC(=O)OC(C)(C)C)C(=O)N2C1` [Compound 1068] showed an IC50 greater than 100 nM.
Same read-out and setting: in the case of `CC(C)(C)OC(=O)N[C@H]1CCCCC/C=C\[C@@H]2C[C@@]2(C(=O)N2CCC[C@@H]2C(=O)NCc2ccccc2)NC(=O)[C@@H]2C[C@@H](O)CN2C1=O` [Compound 1087] it was greater than 100 nM; in that of `CC(=O)O[C@@H]1C[C@H]2C(=O)N[C@]3(C(=O)N4CCC[C@@H]4C(=O)NCc4ccccc4)C[C@H]3/C=C\CCCCC[C@H](NC(=O)OC(C)(C)C)C(=O)N2C1` [Compound 1088], greater than 100 nM.
On the same count and under the same terms, in the case of `CO[C@@H]1C[C@H]2C(=O)N[C@]3(C(=O)N4CCC[C@@H]4C(=O)NCc4ccccc4)C[C@H]3/C=C\CCCCC[C@H](NC(=O)OC(C)(C)C)C(=O)N2C1` [Compound 1089] it was greater than 100 nM.
On the same count and under the same terms, in the case of `CN(C)C(=O)O[C@@H]1C[C@H]2C(=O)N[C@]3(C(=O)N4CCC[C@@H]4C(=O)NCc4ccccc4)C[C@H]3/C=C\CCCCC[C@H](NC(=O)OC(C)(C)C)C(=O)N2C1` [Compound 1090] it was greater than 100 nM.
Turning to `CC(C)(C)OC(=O)N[C@H]1CCCCC/C=C\[C@@H]2C[C@@]2(C(=O)NS(=O)(=O)CC(=O)Nc2ccccc2)NC(=O)[C@@H]2C[C@@H](O)CN2C1=O` [Compound 1092], the half-inhibitory concentration (IC50) on NS3/NS4 complexes (Table 3, read-out: IC50) is greater than 100 nM.
Regarding `CN(C)C(=O)O[C@@H]1C[C@H]2C(=O)N[C@]3(C(=O)NS(=O)(=O)CC(=O)Nc4ccccc4)C[C@H]3/C=C\CCCCC[C@H](NC(=O)OC(C)(C)C)C(=O)N2C1` [Compound 1095], the IC50 on NS3/NS4 complexes (Table 3, read-out: IC50) is greater than 100 nM.
Regarding `CNC(=O)COc1ccccc1S(=O)(=O)NC(=O)[C@@]12C[C@H]1/C=C\CCCCC[C@H](NC(=O)OC(C)(C)C)C(=O)N1C[C@H](OC(=O)N(C)C)C[C@H]1C(=O)N2` [Compound 1097], the 50% inhibitory concentration (IC50) at NS3/NS4 complexes (Table 3, read-out: IC50) is less than 10 nM.
Still for that read-out and setting: in the case of `CC(=O)O[C@@H]1C[C@H]2C(=O)N[C@]3(C(=O)NS(=O)(=O)CC(=O)Nc4ccccc4)C[C@H]3/C=C\CCCCC[C@H](NC(=O)OC(C)(C)C)C(=O)N2C1` [Compound 1098] it was greater than 100 nM.
On to `CC(C)n1c(O[C@@H]2C[C@H]3C(=O)N[C@]4(C(=O)NS(=O)(=O)N(C)C)C[C@H]4/C=C\CCCCC[C@H](NC(=O)OC(C)(C)C)C(=O)N3C2)nc2ccncc21` [Compound 1145], for which, at NS3/NS4 complexes (Table 3, read-out: IC50), the IC50 is less than 10 nM.
